Data from ChEMBL document CHEMBL6120941, “Discovery of SIRT1-Activating Hydrogen Sulfide Donating Derivatives for Efficient Resistant of Myocardial Ischemic Injury” (J Med Chem, 2024).
Calls of active or inactive are those of the source. No cut-off for these calls is given here.

Legend:
[1] = system: H9c2; assay: Cardioprotective activity against CoCl2-induced cellular hypoxia injury in rat H9c2 cells assessed as increase in cell viability at 30 uM incubated for 24 hrs by CCK-8 assay; format: functional, cell-based
[2] = system: H9c2; assay: Cardioprotective activity against CoCl2-induced cellular hypoxia injury in rat H9c2 cells assessed as cell viability at 1.25 uM incubated for 24 hrs by CCK-8 assay (reference value: 51.80 +/- 2.58 %); format: functional; settings: read-out: Activity
[3] = system: H9c2; assay: Cardioprotective activity against CoCl2-induced cellular hypoxia injury in rat H9c2 cells assessed as cell viability at 10 uM incubated for 24 hrs by CCK-8 assay (reference value: 51.80 +/- 2.58 %); format: functional; settings: read-out: Activity
[4] = system: H9c2; assay: Cardioprotective activity against CoCl2-induced cellular hypoxia injury in rat H9c2 cells assessed as cell viability at 2.5 uM incubated for 24 hrs by CCK-8 assay (reference value: 51.80 +/- 2.58 %); format: functional; settings: read-out: Activity
[5] = system: H9c2; assay: Cardioprotective activity against CoCl2-induced cellular hypoxia injury in rat H9c2 cells assessed as cell viability at 0.625 uM incubated for 24 hrs by CCK-8 assay (reference value: 51.80 +/- 2.58 %); format: functional; settings: read-out: Activity
[6] = system: H9c2; assay: Cardioprotective activity against CoCl2-induced cellular hypoxia injury in rat H9c2 cells assessed as cell viability at 5 uM incubated for 24 hrs by CCK-8 assay (reference value: 51.80 +/- 2.58 %); format: functional; settings: read-out: Activity

Structure (SMILES) | Activity [1] | viability at 1.25 µM [2] [%] | viability at 10 µM [3] [%] | viability at 2.5 µM [4] [%] | viability at 0.625 µM [5] [%] | viability at 5 µM [6] [%]
C=CCSSCCC(=O)O[C@H]1CC[C@]2(C)[C@H]3C[C@@H](O)[C@@H]4[C@@H]([C@@](C)(O)CCC=C(C)C)CC[C@@]4(C)[C@]3(C)CC[C@H]2C1(C)C | inactive | 50.8 | 62.7 | 42.5 | 46 | 60.6
CC(C)(O)[C@@H]1CC[C@@](C)([C@H]2CC[C@]3(C)[C@@H]2[C@H](O)C[C@@H]2[C@@]4(C)CC[C@H](OC(=O)c5ccc(N=C=S)cc5)C(C)(C)[C@@H]4CC[C@]23C)O1 | inactive | 62.2 | 77.1 | 67.1 | 62.2 | 70
CC(C)(O)[C@H]1CC[C@@](C)([C@H]2CC[C@]3(C)[C@@H]2[C@H](O)C[C@@H]2[C@@]4(C)CC[C@H](OC(=O)c5ccc(N=C=S)cc5)C(C)(C)[C@@H]4[C@@H](O)C[C@]23C)O1 | inactive | 59.6 | 58.5 | 57.1 | 52.5 | 58.6
CC(C)(O)[C@H]1CC[C@@](C)([C@H]2CC[C@]3(C)[C@@H]2[C@H](O)C[C@@H]2[C@@]4(C)CC[C@H](OC(=O)CCC(=O)Oc5ccc(-c6cc(=S)ss6)cc5)C(C)(C)[C@@H]4CC[C@]23C)O1 | inactive | 66.8 | 72.5 | 67.5 | 65.1 | 69.5
CC(C)(O)[C@H]1CC[C@@](C)([C@H]2CC[C@]3(C)[C@@H]2[C@H](O)C[C@@H]2[C@@]4(C)CC[C@H](OC(=O)c5ccc(N=C=S)cc5)C(C)(C)[C@@H]4CC[C@]23C)O1 | inactive | 61.6 | 72.9 | 67.3 | 59.9 | 68.3
O=C(O)CCC(=O)Oc1ccc(-c2cc(=S)ss2)cc1 | inactive | 67.4 | 80.3 | 74.3 | 66.4 | 77.6
O=C(O)c1ccc(N=C=S)cc1 | inactive | 53.7 | 63.5 | 59.3 | 51.1 | 59.5
CC(C)(O)[C@@H]1CC[C@@](C)([C@H]2CC[C@]3(C)[C@@H]2[C@H](O)C[C@@H]2[C@@]4(C)CC[C@H](O)C(C)(C)[C@@H]4[C@@H](O)C[C@]23C)O1 [PROTOPANAXATRIOL OXIDE II] | inactive | 54 | 73.4 | 56.7 | 52 | 69.6
O=C(O)CCC(=O)Oc1ccc(-c2nc(=O)ss2)cc1 | inactive | 55.1 | 57.2 | 55.9 | 52.4 | 57
C=CCSSCCC(=O)O[C@H]1CC[C@]2(C)[C@H]3C[C@@H](O)[C@@H]4[C@@H]([C@@](C)(O)CCC=C(C)C)CC[C@@]4(C)[C@]3(C)C[C@H](O)[C@H]2C1(C)C | inactive | 58.4 | 65.7 | 64.4 | 49 | 63.1
C=CCSSCCC(=O)O[C@H]1CC[C@]2(C)[C@H]3C[C@@H](O)[C@@H]4[C@@H]([C@]5(C)CC[C@H](C(C)(C)O)O5)CC[C@@]4(C)[C@]3(C)CC[C@H]2C1(C)C | inactive | 72.3 | 74.2 | 73.6 | 65.7 | 76.9
C=CCSSCCC(=O)O[C@H]1CC[C@]2(C)[C@H]3C[C@@H](O)[C@@H]4[C@@H]([C@]5(C)CC[C@H](C(C)(C)O)O5)CC[C@@]4(C)[C@]3(C)C[C@H](O)[C@H]2C1(C)C | inactive | 64.5 | 69.7 | 62.9 | 68.1 | 66.5
CC(C)(O)[C@@H]1CC[C@@](C)([C@H]2CC[C@]3(C)[C@@H]2[C@H](O)C[C@@H]2[C@@]4(C)CC[C@H](OC(=O)CCC(=O)Oc5ccc(-c6cc(=S)ss6)cc5)C(C)(C)[C@@H]4[C@@H](O)C[C@]23C)O1 | inactive | 73.6 | 75.2 | 76.9 | 68.4 | 77.2
CC(C)(O)[C@H]1CC[C@@](C)([C@H]2CC[C@]3(C)[C@@H]2[C@H](O)C[C@@H]2[C@@]4(C)CC[C@H](OC(=O)CCC(=O)Oc5ccc(-c6nc(=O)ss6)cc5)C(C)(C)[C@@H]4[C@@H](O)C[C@]23C)O1 | inactive | 72.5 | 81.5 | 76 | 65.7 | 77.3
CC(C)(O)[C@@H]1CC[C@@](C)([C@H]2CC[C@]3(C)[C@@H]2[C@H](O)C[C@@H]2[C@@]4(C)CC[C@H](OC(=O)c5ccc(N=C=S)cc5)C(C)(C)[C@@H]4[C@@H](O)C[C@]23C)O1 | inactive | 55.5 | 63.1 | 58.8 | 56.9 | 61.4
CC(C)=CCC[C@](C)(O)[C@H]1CC[C@]2(C)[C@@H]1[C@H](O)C[C@@H]1[C@@]3(C)CC[C@H](OC(=O)c4ccc(N=C=S)cc4)C(C)(C)[C@@H]3CC[C@]12C | inactive | 61 | 61.5 | 60.7 | 54.7 | 67.5
CC(C)(O)[C@@H]1CC[C@@](C)([C@H]2CC[C@]3(C)[C@@H]2[C@H](O)C[C@@H]2[C@@]4(C)CC[C@H](OC(=O)CCC(=O)Oc5ccc(-c6cc(=S)ss6)cc5)C(C)(C)[C@@H]4CC[C@]23C)O1 | inactive | 71.4 | 82.2 | 79.6 | 68.4 | 80
CC(C)=CCC[C@](C)(O)[C@H]1CC[C@]2(C)[C@@H]1[C@H](O)C[C@@H]1[C@@]3(C)CC[C@H](OC(=O)c4ccc(N=C=S)cc4)C(C)(C)[C@@H]3[C@@H](O)C[C@]12C | inactive | 55.2 | 54.8 | 54 | 50.9 | 56.6
CC(C)(O)[C@H]1CC[C@@](C)([C@H]2CC[C@]3(C)[C@@H]2[C@H](O)C[C@@H]2[C@@]4(C)CC[C@H](O)C(C)(C)[C@@H]4[C@@H](O)C[C@]23C)O1 | inactive | 55.6 | 61.5 | 57 | 56.5 | 55.6
O=C(Nc1ccccc1-c1cn2c(CN3CCNCC3)csc2n1)c1cnc2ccccc2n1 |  | 73.3 | 88.4 | 80.6 | 71.7 | 83.3
CC(C)=CCC[C@](C)(O)[C@H]1CC[C@]2(C)[C@@H]1[C@H](O)C[C@@H]1[C@@]3(C)CC[C@H](O)C(C)(C)[C@@H]3CC[C@]12C | inactive | 63 | 68.8 | 67.5 | 52.5 | 67.5
CC(C)(O)[C@H]1CC[C@@](C)([C@H]2CC[C@]3(C)[C@@H]2[C@H](O)C[C@@H]2[C@@]4(C)CC[C@H](O)C(C)(C)[C@@H]4CC[C@]23C)O1 | inactive | 66.4 | 75.5 | 65.4 | 68.7 | 66.9
CC(C)(O)[C@H]1CC[C@@](C)([C@H]2CC[C@]3(C)[C@@H]2[C@H](O)C[C@@H]2[C@@]4(C)CC[C@H](OC(=O)CCC(=O)Oc5ccc(-c6cc(=S)ss6)cc5)C(C)(C)[C@@H]4[C@@H](O)C[C@]23C)O1 | inactive | 66.2 | 68.3 | 68.4 | 67.3 | 68.1
C=CCSSCCC(=O)O | inactive | 57.5 | 80.3 | 68.4 | 51.7 | 71
CC(C)=CCC[C@](C)(O)[C@H]1CC[C@]2(C)[C@@H]1[C@H](O)C[C@@H]1[C@@]3(C)CC[C@H](O)C(C)(C)[C@@H]3[C@@H](O)C[C@]12C | inactive | 66.8 | 71.6 | 67.3 | 66 | 71.4
